Assay results from patent US11844853B2, “Antiperspirant composition” (Conopco, Inc., priority 2018, dated 2023).

Assay: Percentage flow rate reduction (PFRR) of artificial sweat across a membrane coated with antiperspirant active
Conditions: metal deposited 0.004 g/membrane; 12 micron pore size, 50 mm dia.; flow of artificial sweat under 60 cm constant water bar pressure (5.9 kPa)
Description: The above solutions were deposited on a membrane as give below such that the metal deposited was 0.004 g/membrane.
Whatman cellulose nitrate membranes (AE 100, 12 micron nominal pore size, 50 mm dia.) were coated with required volume of desired % w/v or w/w solution of ACH in water. The coated membranes were taken out and kept in air for 30 mins. Then the membranes were put into a closed chamber having 250 ml 10% (v/v) ammoniacal solution inside to generate an ammoniacal blanketing at 25-30° C. temperature, for 4 hrs to neutralize the active. Then the neutralized membranes were kept in air for 6 hrs to remove excess moisture and were used for flow rate assessment. The membranes were fitted in the Millipore filtration set up and flow rate of artificial sweat under 60 cm constant water bar pressure was measured. The selected water bar pressure corresponds to 5.9 kPa, which is reported as the average secretory pressure of the sweat glands (avg.SPSG)
Whatman cellulose nitrate membranes (AE 100, 12 micron nominal pore size, 50 mm dia.) were coated with required volume of desired % w/v or w/w solution of zinc complex in ethanol. The coated membranes were taken out and kept in air for 15 mins. […]
The percentage flow rate reduction was calculated using the equation:

| Substance | Avg % PFRR N = 8 [%] |
| --- | --- |
| Zinc lysine complex [Example C, Zinc lysine complex [Zn (lysine)2. Cl2.2H2O]] | 10 |
| Aluminium chlorohydrate [Example A] | 66 |
